Data from patent US20090062388A1, “Use of acetyl L-carnitine for the preparation of a medication for the preventive therapy for pain” (Sigma-Tau Industrie Farmaceutiche Riunite S.p.A., priority 2001, published 2009).

What was measured:
Type in all cases: in vivo
Male Swiss Webster mice [1] = assay: Abdominal constriction test (acetic acid IP); settings: for Number of constrictions (0.3% acetic acid) / Number of constrictions (0.6% acetic acid): 3 mg/ml in drinking water
Method: The second experiment was the abdominal constriction test.
The abdominal constriction test was carried out according to Koster et al. in Fed. Proc. 18: 412, 1959.
According to this test, an IP injection of 0.6% acetic acid solution is to be made 5 minutes before starting the observation, which lasted 10 minutes.
In some experiments, the percentage of acetic acid was reduced by half (0.3%).

Male Swiss Webster mice [2] = assay: Kainic acid-induced hyperalgesia (hot plate)
Method: According to this test, the hyperalgesia—determined in the mice through the hot plate test—is induced by a solution of kainic acid (20 mg/kg, IP).

Male Swiss Webster mice [3] = assay: Hyperalgesia induced by NMDA (hot plate)
Method: This test was carried out in compliance with what described in the rats by Davies and Inturrisi in J. Pharmacol. Exp. Ther., 289: 1048-1053, 1999, but was applied to the mice by us.
According to this test, the hyperalgesia, assessed through the hot plate test, is to be induced by intrathecal administration of an NMDA solution (1.64 μg/mouse; administered around 15 minutes after the last administration of acetyl L-carnitine).
The reduction in the pain threshold, which reaches its peak 15 minutes after the injection of NMDA, disappears within 30 minutes from the administration.

Male Swiss Webster mice [4] = assay: Sleep induction test with pentobarbital
Method: In the sleep induction test with pentobarbital, the duration of the loss of the […] reflex was measured in the mice treated with pentobarbital (60 mg/kg IP).

[5] = pentobarbital 60 mg/kg IP, Acetyl L-carnitine 100 mg/kg BID SC 7 days, Piracetam 30 mg/kg IP

Compound: CC(=O)O[C@H](CC(=O)[O-])C[N+](C)(C)C [Acetyl L-carnitine, acetyl L-carnitine]
- Number of constrictions (0.3% acetic acid) (Male Swiss Webster mice [1]; sub-chronic treatment 7 days): 12.7 ± 3.5
- Number of constrictions (0.6% acetic acid) (Male Swiss Webster mice [1]; sub-chronic treatment 7 days): 31.5 ± 4.0
- Number of constrictions (0.3% acetic acid) (Male Swiss Webster mice [1]; sub-chronic treatment 14 days): 11.9 ± 2.2
- Number of constrictions (0.6% acetic acid) (Male Swiss Webster mice [1]; sub-chronic treatment 14 days): 28.3 ± 5.1
- antinociceptive effect, abdominal constriction test (Male Swiss Webster mice [1]; 0.6% acetic acid, 30 mg/kg IP (or SC), 18-day treatment (FIG. 3)): had no effect
- antinociceptive effect, abdominal constriction test (Male Swiss Webster mice [1]; 0.6% acetic acid, 100 mg/kg BID, SC or IP, 14 days of treatment (FIG. 1)): exerted an antinociceptive effect
- antinociceptive effect, abdominal constriction test (Male Swiss Webster mice [1]; 0.6% acetic acid, 100 mg/kg acute administration (SC or IP) or repeated for 7 days (FIG. 1)): had no effect at all
- antinociceptive effect, abdominal constriction test (Male Swiss Webster mice [1]; small concentration of acid, 30 mg/kg, 14 days (FIG. 4)): the statistic significance was obtained after 14 days
- pain threshold in abdominal constriction test (0.3 and 0.6%) (Male Swiss Webster mice [1]; solution 3 mg/ml in bottle for 7 and 14 days): no increase in the pain threshold was observed
- reversal of kainic acid-induced hyperalgesia (Male Swiss Webster mice [2]; 7-day repeated administration started 48 hours after kainic acid 20 mg/kg IP (FIG. 6)): capable to revert the hyperalgesia
- reversal of kainic acid-induced hyperalgesia (Male Swiss Webster mice [2]; single administration (FIG. 6bis)): no anti-hyperalgesic effect
- effect on reduction in pain threshold induced by NMDA (Male Swiss Webster mice [3]; 30 mg/kg BID, IP or SC for 7 days (FIG. 7)): not found to be active
- effect on reduction in pain threshold induced by NMDA (Male Swiss Webster mice [3]; 100 mg/kg BID, SC or IP for 7 days, NMDA 1.64 μg/mouse intrathecal (FIG. 7)): anti-nociceptive effect
- effect on pentobarbital sleep duration and induction times (Male Swiss Webster mice [4]; 100 mg/kg BID SC for 7 days, pentobarbital 60 mg/kg IP 24 hours after end of treatments): neither affected the duration of sleep nor the induction times
- SLEEP Duration (Male Swiss Webster mice [4]; [5]): 23.5 ± 3.4 min
- SLEEP Induction time (Male Swiss Webster mice [4]; [5]): 3.3 ± 2.1 min
